Test results: patent US20260035403A1, “NUCLEOSIDE LINE-1 INHIBITORS” (TRANSPOSON THERAPEUTICS, INC., priority 2022, published 2026)

These molecules were tested on human LINE-1 (assay: Human LINE-1 retrotransposition assay (HeLa cell-based dual-luciferase reporter)). Details: Homo sapiens, HeLa, 72 h, Human LINE-1 activity inhibition; HeLa cells, reporter plasmid pYX017, Firefly/Renilla, 72 h incubation.
Method: Representative Compounds of the Disclosure were tested for inhibition of retrotransposition activity of human LINE-1 in HeLa cells according to the following procedure.
HeLa cervical cancer cells were cultivated at 37° C. in a humidified 5% CO2 incubator in Dulbecco's Modified Eagle's Medium (DMEM)—high glucose, with 4500 mg/L glucose, L-glutamine, sodium pyruvate and sodium bicarbonate (Sigma), supplemented with 10% of heat inactivated fetal bovine serum (Thermo Fisher).
Assays were performed using reporter plasmid pYX017 as described (Xie, et al., 2011) with several modifications. The reporter assay was performed in 96-well white optical bottom plates. HeLa cells were seeded in wells 24 h prior to transfection and compound treatment so that cells were approximately 30% confluent on the day of transfection. Different cell plating densities were tested and a density of 2×10^3 cells was determined to be optimal.
Compounds were resuspended in DMSO. Serial dilutions (1:3) were prepared in DMSO. Medium containing different concentrations of the compounds were prepared by adding 2 μl of the compound dilution to 1 ml of the culture medium. The final concentration of DMSO in the medium was 0.2%.
FuGENE® HD transfection reagent (Promega, E2311, Lot 382574 and Lot 397842) was used to transfect the plasmids into the cells. The transfection reagent: DNA mixture was prepared in OpiMEM (Thermo Fisher) according to manufacturer's instructions. Different ratios of transfection reagent to DNA were tested and a ratio of 3:1 was determined to be optimal. Culture medium was removed from the cells and discarded. The transfection reagent: DNA mixture (5 μl) was mixed with the compound containing medium (100 μl/well) and this was added onto the cells of each well. Cells were incubated at 37° C./5% CO2 for different incubation time. A 72 h incubation time was determined to be optimal.
Luciferase reporter activity was quantified with the Dual-Luciferase® Reporter Assay System (Promega) according to manufacturer's instructions for multiwell plates except that cells were lysed directly on the multiwell plate with 30 μl of the passive lysis buffer (PLB) for 20 min at room temperature, with gentle shaking to ensure complete cell lysis.
Firefly and Renilla luciferase signals were measured using a SpectraMax i3× Multi-Mode Microplate Reader. Integration times of 100 ms and 10 ms were used to measure the Firefly and Renilla signals respectively. Relative L1 activity is calculated as Firefly/Renilla*1000 or Firefly/Renilla*10,000. Dose response inhibition data were fit to a four parameter logistic equation using non-linear regression (using Graphpad Prism 8), to determine IC50 values for each inhibitor.
Molecule `CC[C@]1(CO)O[C@@H](n2cnc3c(O)ncnc32)C[C@@H]1O` [Cpd. No. 1] has an IC50 of 62 nM. Molecule `CC[C@]1(CO)O[C@@H](n2cc(Br)c(=O)[nH]c2=O)C[C@@H]1O` [Cpd. No. 2, 5-bromo-1-((2R,4S,5R)-5-ethyl-4-hydroxy-5-(hydroxymethyl)tetrahydrofuran-2-yl)-4-hydroxypyrimidin-2(1H)-one] has an IC50 of 6900 nM. In the case of `C#C[C@]1(CO)O[C@H](n2nc(C)c3c(N)nc(F)nc32)C[C@@H]1O` [Cpd. No. 3, (2R,3S,5S)-5-(4-amino-6-fluoro-3-methyl-1H-pyrazolo[3,4-d]pyrimidin-1-yl)-2-ethynyl-2-(hydroxymethyl)tetrahydrofuran-3-ol], the IC50 is reported as 41 nM. Molecule `C=C[C@]1(CO)O[C@@H](n2cnc3c(NC4CC4)nc(N)nc32)C[C@@H]1O` [Cpd. No. 4, (2R,3S,5R)-5-(2-amino-6-(cyclopropylamino)-9H-purin-9-yl)-2-(hydroxymethyl)-2-vinyltetrahydrofuran-3-ol] has an IC50 of 401 nM. Molecule `C=C[C@]1(CO)O[C@@H](n2cnc3c(NC4CC4)nc(F)nc32)C[C@@H]1O` [Cpd. No. 5, (2R,3S,5R)-5-(6-(cyclopropylamino)-2-fluoro-9H-purin-9-yl)-2-(hydroxymethyl)-2-vinyltetrahydrofuran-3-ol] has an IC50 of 469 nM. Work on `C=C[C@]1(CO)O[C@@H](n2cc(OC)c(=O)[nH]c2=O)C[C@@H]1O` [Cpd. No. 6, 1-((2R,4S,5R)-4-hydroxy-5-(hydroxymethyl)-5-vinyltetrahydrofuran-2-yl)-5-methoxypyrimidine-2,4(1H,3H)-dione] yielded an IC50 greater than 50000 nM. In the case of `C=C[C@]1(CO)O[C@@H](n2cc(F)c(N)nc2=O)C[C@@H]1O` [Cpd. No. 8, 4-amino-5-fluoro-1-((2R,4S,5R)-4-hydroxy-5-(hydroxymethyl)-5-vinyltetrahydrofuran-2-yl)pyrimidin-2(1H)-one], the IC50 is reported as 9 nM. Molecule `C=C[C@]1(CO)O[C@@H](n2cnc3c(O)nc(N)nc32)C[C@@H]1O` [Cpd. No. 9, 2-amino-9-((2R,4S,5R)-4-hydroxy-5-(hydroxymethyl)-5-vinyltetrahydrofuran-2-yl)-1H-purin-6(9H)-one] has an IC50 of 13 nM. In the case of `C#C[C@]1(CO)OC(n2cnc(C(N)=O)n2)C[C@@H]1O` (stereo partly drawn) [Cpd. No. 11, 1-((4S,5R)-5-ethynyl-4-hydroxy-5-(hydroxymethyl)tetrahydrofuran-2-yl)-1H-1,2,4-triazole-3-carboxamide], the IC50 is reported as greater than 50000 nM. With `C=C[C@]1(CO)O[C@@H](n2cc(F)c(=O)[nH]c2=O)C[C@@H]1O` [Cpd. No. 17, 5-fluoro-1-((2R,4S,5R)-4-hydroxy-5-(hydroxymethyl)-5-vinyltetrahydrofuran-2-yl)pyrimidine-2,4(1H,3H)-dione] the IC50 was 2350 nM. With `CC[C@]1(CO)O[C@@H](n2cc(F)c(=O)[nH]c2=O)C[C@@H]1O` [Cpd. No. 18, 1-((2R,4S,5R)-5-ethyl-4-hydroxy-5-(hydroxymethyl)tetrahydrofuran-2-yl)-5-fluoropyrimidine-2,4(1H,3H)-dione] the IC50 was 3750 nM. In the case of `CC[C@]1(CO)O[C@H](n2ccc(=O)[nH]c2=O)C[C@@H]1O` [Cpd. No. 20, 1-((2S,4S,5R)-5-ethyl-4-hydroxy-5-(hydroxymethyl)tetrahydrofuran-2-yl)pyrimidine-2,4(1H,3H)-dione], the IC50 is reported as 7210 nM. `C=C[C@]1(CO)O[C@@H](n2cc(C)c(=O)[nH]c2=O)C[C@@H]1O` [Cpd. No. 62, 1-((2R,4S,5R)-4-hydroxy-5-(hydroxymethyl)-5-vinyltetrahydrofuran-2-yl)-5-methylpyrimidine-2,4(1H,3H)-dione] showed an IC50 of 3670 nM. With `C=C[C@]1(CO)O[C@@H](n2cc(Br)c(=O)[nH]c2=O)C[C@@H]1O` [Cpd. No. 64, 5-bromo-1-((2R,4S,5R)-4-hydroxy-5-(hydroxymethyl)-5-vinyltetrahydrofuran-2-yl)pyrimidine-2,4(1H,3H)-dione] the IC50 was 9930 nM.

Same assay, conditions: Human LINE-1 activity inhibition; HeLa cells, reporter plasmid pYX017, Firefly/Renilla, 72 h incubation
Work on `C#C[C@@]1(CO)C=C[C@H](n2cc(F)c(=O)[nH]c2=O)O1` [Cpd. No. 19, 1-((2R,5R)-5-ethynyl-5-(hydroxymethyl)-2,5-dihydrofuran-2-yl)-5-fluoropyrimidine-2,4(1H,3H)-dione] yielded an IC50 greater than 50000 nM.
